In patent publication US6949557B2, “Hydroanthracene based compounds as anticancer agents” (Dabur Research Foundation, priority 2003, dated 2005):
Converted amounts (≈) assume the structure as drawn.

What was measured:
[1] = tested on: MCF7; test: three day MTT cytotoxicity assay, MCF7; assay type: cell-based, human; details: 72 hours incubation, MCF7 breast cells
Experimental: (§1) A number of the anthracene based compounds were tested for cytotoxicity against 12 human tumor cell lines. Briefly, a three day MTT cytotoxicity assay was performed, which is based on the principle of uptake of MTT (3-(4,5-dimethylthiazol-2-yl)-2,5-diphenyl tetrazolium bromide), a tetrazolium salt, by the metabolically active cells where it is metabolized by active mitochondria into a blue colored formazan product that is read spectrophotometrically. MTT was dissolved in phosphate buffered saline with a pH of 7.4 to obtain an MTT concentration of 5 mg/ml; the resulting mixture was filtered through a 0.22 micron filter to sterilize and remove a small amount of insoluble residue. For each type of tumor cell, 10,000 to 15,000 cells were seeded in a 96-well culture plate and incubated with the individual anthracene based compounds in a CO2 incubator for a total of 72 hours. Control cells not treated with the anthracene based compounds were similarly incubated. The assay was terminated by adding 100 ug (20 ul) of MTT to each well, then incubating for additional one hour, and finally adding 50 ul of 10% SDS-0.01N HCl to each well to lyse the cells and dissolve formazan. After incubating for one hour, the plate was read spectrophotometrically at 540 nm and the percentage of cytotoxicity calculated using the following formula:
(§2) Cytotoxicity percentage=100×[1−(X/R1)],
(§3) where X=(absorbance of treated sample at 540 nm)−(absorbance of blank at 540 nm)
(§4) R1=absorbance of control sample at 540 nm.
(§5) The IC50 Values of the cytotoxicity defined as the concentration at which 50% of the cells are killed in vitro was calculated for each cell line treated with each of the anthracene based compounds.

[2] = tested on: L132; test: three day MTT cytotoxicity assay, L132; assay type: cell-based, human; details: 72 hours incubation, L132 lung cells
Experimental: as §1, §2, §3, §4, §5

[3] = tested on: HT29; test: three day MTT cytotoxicity assay, HT29; assay type: cell-based, human; details: 72 hours incubation, HT29 colon cells
Experimental: as §1, §2, §3, §4, §5

[4] = tested on: PTC; test: three day MTT cytotoxicity assay, PTC; assay type: cell-based, human; details: 72 hours incubation, PTC colon cells
Experimental: as §1, §2, §3, §4, §5

[5] = tested on: MiaPaca2; test: three day MTT cytotoxicity assay, MiaPaca2; assay type: cell-based, human; details: 72 hours incubation, MiaPaca2 pancreatic cells
Experimental: as §1, §2, §3, §4, §5

[6] = tested on: Hep2; test: three day MTT cytotoxicity assay, Hep2; assay type: cell-based, human; details: 72 hours incubation, Hep2 larynx cells
Experimental: as §1, §2, §3, §4, §5

[7] = tested on: MOLT4; test: three day MTT cytotoxicity assay, MOLT4; assay type: cell-based, human; details: 72 hours incubation, MOLT4 leukemia cells
Experimental: as §1, §2, §3, §4, §5

[8] = tested on: PA1; test: three day MTT cytotoxicity assay, PA1; assay type: cell-based, human; details: 72 hours incubation, PA1 ovarian cells
Experimental: as §1, §2, §3, §4, §5

[9] = tested on: DU145; test: three day MTT cytotoxicity assay, DU145; assay type: cell-based, human; details: 72 hours incubation, DU145 prostate cells
Experimental: as §1, §2, §3, §4, §5

[10] = tested on: U87MG; test: three day MTT cytotoxicity assay, U87MG; assay type: cell-based, human; details: 72 hours incubation, U87MG glioblastoma cells
Experimental: as §1, §2, §3, §4, §5

[11] = tested on: KB; test: three day MTT cytotoxicity assay, KB; assay type: cell-based, human; details: 72 hours incubation, KB oral cells
Experimental: as §1, §2, §3, §4, §5

[12] = tested on: ECV304; test: three day MTT cytotoxicity assay, ECV304; assay type: cell-based, human; details: 72 hours incubation, ECV304 endothelial cells
Experimental: as §1, §2, §3, §4, §5

| SMILES | ED50 MCF7 Breast [1] [µg/mL] | ED50 L132 Lung [2] [µg/mL] | ED50 HT29 Colon [3] [µg/mL] | ED50 PTC Colon [4] [µg/mL] | ED50 MiaPaca2 Pancreatic [5] [µg/mL] | ED50 Hep2 Larynx [6] [µg/mL] | ED50 MOLT4 Leukemia [7] [µg/mL] | ED50 PA1 Ovarian [8] [µg/mL] | ED50 DU145 Prostate [9] [µg/mL] | ED50 U87MG Glioblastoma [10] [µg/mL] | ED50 KB Oral [11] [µg/mL] | ED50 ECV304 Endothelial [12] [µg/mL] | melting point [°C] |
| --- | --- | --- | --- | --- | --- | --- | --- | --- | --- | --- | --- | --- | --- |
| COc1ccc(OC)c2c1Cc1c(ccc(C)c1OC(=O)[C@H](O)[C@@H](N)c1ccccc1)C2(C)C [Compound 29, 3-Amino-2-hydroxy-3-phenyl-propionic acid 5,8-dimethoxy-2,10,10,-trimethyl-9,10-dihydro-anthracen-1-yl ester] | 29 (≈ 62.8 µM) | 5.0 (≈ 10.8 µM) | 6.5 (≈ 14.1 µM) | 5.0 (≈ 10.8 µM) | 35 (≈ 75.8 µM) | 5.0 (≈ 10.8 µM) | 5.0 (≈ 10.8 µM) | 5.0 (≈ 10.8 µM) | 34 (≈ 73.7 µM) | 8.0 (≈ 17.3 µM) | 30 (≈ 65 µM) | 9.0 (≈ 19.5 µM) |  |
| CC1=CCC2C(C)(C)C3=C(CC2(C)C1OC(=O)c1cc(Cl)nc(Cl)n1)C(=O)C=CC3=O (stereo not drawn) [Compound 27, 2,6-Dichloro-pyrimidine-4-carboxylicacid-2,9a,10,10-tetramethyl-5,8-dioxo-1,4,4a,5,8,9,9a,10-octahydro-anthracen-1-yl ester] |  |  |  |  |  |  |  |  |  |  |  |  | 137 to 140 |
| CC1=CCC2C(C)(C)C3=C(CC2(C)C1OC(=O)C1OC(C)(C)N(C(=O)OC(C)(C)C)C1c1ccccc1)C(=O)C=CC3=O (stereo not drawn) [Compound 23, 2,2-Dimethyl-4-phenyl-oxazolidine-3,5-dicarboxylic acid 3-tert-butyl ester 5-(2,9a,10,10-tetramethyl-5,8-dioxo-1,4,4a,5,8,9,9a,10-octahydro-anthracen-1-yl) ester] |  |  |  |  |  |  |  |  |  |  |  |  | 90 to 92 |
| CC1=CCC2C(CC3=C(C(=O)C=CC3=O)C2(C)C)C1=O (stereo not drawn) [Compound 20, 6,9,9-Trimethyl-8a,9, 10,10a-tetrahydro-8H-anthracene-1,4,5-trione] |  |  |  |  |  |  |  |  |  |  |  |  | 125 to 140 |
| COc1ccc(OC)c2c1CC1C(OC(=O)C(O)C(N)c3ccccc3)C(C)=CCC1C2(C)C (stereo not drawn) [Compound 7, 3-Amino-2-hydroxy-3-phenyl-propionic acid 5,8-dimethoxy-2,10,10-trimethyl-1,4,4a,9,9a,10-hexahydro-anthracen-1-yl ester] | 35 (≈ 75.2 µM) | 24 (≈ 51.5 µM) | 8.0 (≈ 17.2 µM) | 5.0 (≈ 10.7 µM) | 35 (≈ 75.2 µM) | 5.0 (≈ 10.7 µM) | 5.0 (≈ 10.7 µM) | 5.0 (≈ 10.7 µM) | 33 (≈ 70.9 µM) | 24 (≈ 51.5 µM) | 29 (≈ 62.3 µM) | 6.0 (≈ 12.9 µM) |  |
